According to PubChem BioAssay AID330 (DTP/NCI, 2004):
“And” between values parts separate entries of the source, which are not always exact repeats. Equal values may be shown once. Inconclusive results and toxic doses are left out.

System: P388 leukemia ip, CD2F1 mice, survival T/C
Test: NCI In Vivo Anticancer Drug Screen. Data for tumor model P388 Leukemia (intraperitoneal) in CD2F1 (CDF1) mice
Conditions: endpoint: median survival time, higher = longer survival
Method in brief: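 Mice carrying the transplanted tumor received test compound or vehicle. Survival was recorded in each group, and the value is the treated-group measurement divided by that of the vehicle-treated control group.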

[1] = dose: 100.0 mg/kg/injection, schedule: Q04DX003 (ip), vehicle: Klucel (hydroxypropylcellulose) (HPC)
[2] = dose: 200.0 mg/kg/injection, schedule: Q04DX003 (ip), vehicle: Klucel (hydroxypropylcellulose) (HPC)
[3] = dose: 400.0 mg/kg/injection, schedule: Q04DX003 (ip), vehicle: Klucel (hydroxypropylcellulose) (HPC)
[4] = dose: 50.0 mg/kg/injection, schedule: Q01DX009 (ip), vehicle: saline
[5] = dose: 100.0 mg/kg/injection, schedule: Q01DX009 (ip), vehicle: saline
[6] = dose: 200.0 mg/kg/injection, schedule: Q01DX009 (ip), vehicle: saline
[7] = dose: 60.0 mg/kg/injection, schedule: Q01DX005 (ip), vehicle: saline with Tween-80
[8] = dose: 120.0 mg/kg/injection, schedule: Q01DX005 (ip), vehicle: saline with Tween-80
[9] = dose: 240.0 mg/kg/injection, schedule: Q01DX005 (ip), vehicle: saline with Tween-80
[10] = dose: 100.0 mg/kg/injection, schedule: Q04DX002 (ip), vehicle: saline
[11] = dose: 200.0 mg/kg/injection, schedule: Q04DX002 (ip), vehicle: saline
[12] = dose: 400.0 mg/kg/injection, schedule: Q04DX002 (ip), vehicle: saline
[13] = dose: 50.0 mg/kg/injection, schedule: Q01DX005 (ip), vehicle: saline with Tween-80
[14] = dose: 100.0 mg/kg/injection, schedule: Q01DX005 (ip), vehicle: saline with Tween-80
[15] = dose: 200.0 mg/kg/injection, schedule: Q01DX005 (ip), vehicle: saline with Tween-80
[16] = dose: 30.0 mg/kg/injection, schedule: Q01DX005 (ip), vehicle: saline with Tween-80
[17] = dose: 12.5 mg/kg/injection, schedule: Q01DX005 (ip), vehicle: saline with Tween-80
[18] = dose: 25.0 mg/kg/injection, schedule: Q01DX005 (ip), vehicle: saline with Tween-80
[19] = dose: 25.0 mg/kg/injection, schedule: Q04DX003 (ip), vehicle: saline with Tween-80

SMILES: Cc1ccc(S(=O)(=O)OCC(C)(C)C)cc1
- T/C (dose: 50.0 mg/kg/injection, schedule: Q04DX003 (ip), vehicle: Klucel (hydroxypropylcellulose) (HPC)): 100 % of control
- T/C [1]: 100 % of control
- T/C [2]: 100 % of control
- T/C [3]: 96 % of control

SMILES: CCOC(=O)C(NC(C)=O)(C(=O)OCC)c1ccc(Cl)cn1
- T/C (dose: 100.0 mg/kg/injection, schedule: Q04DX003 (ip), vehicle: saline): 103 % of control
- T/C (dose: 200.0 mg/kg/injection, schedule: Q04DX003 (ip), vehicle: saline): 100 % of control
- T/C (dose: 400.0 mg/kg/injection, schedule: Q04DX003 (ip), vehicle: saline): 95 % of control

SMILES: Cc1c(C2=NCC(C)S2)ccc(O)c1S(=O)(=O)O (stereo not given)
- T/C [4]: 92 % of control
- T/C [5]: 92 % of control
- T/C [6]: 101 % of control

SMILES: CC(C)Nc1nc(Cl)nc(Cl)n1
- T/C (dose: 50.0 mg/kg/injection, schedule: Q01DX005 (ip), vehicle: Klucel (hydroxypropylcellulose) (HPC)): 98 % of control
- T/C (dose: 100.0 mg/kg/injection, schedule: Q01DX005 (ip), vehicle: Klucel (hydroxypropylcellulose) (HPC)): 93 % of control

SMILES: CNCC(=O)Nc1ccc2c(c1)C(=O)c1ccc(NC(=O)CNC)cc1C2=O
- T/C (dose: 94.75 mg/kg/injection, schedule: Q01DX001 (ip), vehicle: suspension in saline): 110 % of control

SMILES: Cc1ccc([N+](=O)[O-])cc1NC(=O)NNC(=O)CNC(=O)Nc1cccc(C(F)(F)F)c1
- T/C [7]: 95 % of control
- T/C [8]: 96 % of control
- T/C [9]: 100 % of control

SMILES: CCN(CC)CCOC(=O)c1ccc(NC(=O)Nc2ccc(C(=O)OCCN(CC)CC)cc2)cc1
- T/C (dose: 25.0 mg/kg/injection, schedule: Q01DX009 (ip), vehicle: saline): 102 % of control
- T/C [4]: 107 % of control
- T/C [5]: 118 % of control

SMILES: NC(=O)C(N)CCc1ccccc1 (stereo not given)
- T/C [7]: 100 % of control
- T/C [8]: 102 % of control
- T/C [9]: 96 % of control

SMILES: C[n+]1ccccc1-c1ccc[n+](CCC[n+]2cccc(-c3cccc[n+]3C)c2)c1
- T/C [10]: 105 % of control
- T/C [11]: 102 % of control
- T/C [12]: 108 % of control

SMILES: FC(F)(F)C(OP(OC(C(F)(F)F)C(F)(F)F)OC(C(F)(F)F)C(F)(F)F)C(F)(F)F
- T/C [13]: 101 % of control
- T/C [14]: 92 % of control
- T/C [15]: 92 % of control

SMILES: CCC[CH2][GeH][CH2]CCC.CCC[CH2][Ge]([CH2]CCC)[CH2]CCC
- T/C [4]: 98 % of control
- T/C [5]: 88 % of control
- T/C [6]: 98 % of control

SMILES: O=C1CN(c2cccc(Cl)c2)C(=O)CN1/N=C/c1ccco1
- T/C [13]: 109 % of control
- T/C [14]: 107 % of control
- T/C [15]: 98 % of control

SMILES: CCOC(=O)Nc1cc(Cl)c([N+](=O)[O-])c([N+](=O)[O-])n1
- T/C [10]: 101 % of control
- T/C [11]: 103 % of control
- T/C [12]: 110 % of control

SMILES: Cc1cc(=O)c2c(ccc3c(=O)cc(C)[nH]c32)[nH]1
- T/C [16]: 93 % of control
- T/C [7]: 91 % of control
- T/C [8]: 100 % of control and 91 % of control

SMILES: O=C1CN(CCN2CCCCC2)CC(=O)N2Cc3ccccc3CN12
- T/C [17]: 102 % of control
- T/C [18]: 104 % of control
- T/C [13]: 100 % of control and 102 % of control

SMILES: CCN(CC)CCNc1cc(Nc2ccc([N+](=O)[O-])cc2)ccc1OC
- T/C [17]: 108 % of control
- T/C [18]: 106 % of control
- T/C [13]: 99 % of control
- T/C [15]: 87 % of control

SMILES: CS/N=C(\c1ccccc1)N1CCOCC1
- T/C (dose: 60.0 mg/kg/injection, schedule: Q01DX005 (ip), vehicle: Klucel (hydroxypropylcellulose) (HPC)): 100 % of control
- T/C (dose: 120.0 mg/kg/injection, schedule: Q01DX005 (ip), vehicle: Klucel (hydroxypropylcellulose) (HPC)): 98 % of control

SMILES: O=C1c2cccnc2C(=O)N1CCO
- T/C (dose: 50.0 mg/kg/injection, schedule: Q01DX005 (ip), vehicle: saline): 95 % of control
- T/C (dose: 100.0 mg/kg/injection, schedule: Q01DX005 (ip), vehicle: saline): 100 % of control
- T/C (dose: 200.0 mg/kg/injection, schedule: Q01DX005 (ip), vehicle: saline): 101 % of control

SMILES: COc1ccc(C(C#N)C(=O)C(=O)Nc2ccc(C)cc2C)cc1OC (stereo not given)
- T/C [7]: 95 % of control
- T/C [8]: 100 % of control

SMILES: N#CC1(c2ccccc2)CCN(c2c3ccccc3nc3ccccc23)CC1
- T/C [1]: 103 % of control and 110 % of control
- T/C [2]: 109 % of control and 112 % of control
- T/C [3]: 117 % of control and 123 % of control

SMILES: COc1cc(/C=C/[N+](=O)[O-])cc(Br)c1O
- T/C [16]: 119 % of control
- T/C [7]: 110 % of control and 113 % of control
- T/C [8]: 102 % of control and 122 % of control

SMILES: NC(Cc1ccc(OC(c2ccccc2)(c2ccccc2)c2ccccc2)cc1)C(=O)O (stereo not given)
- T/C [4]: 101 % of control
- T/C [5]: 96 % of control
- T/C [6]: 90 % of control

SMILES: CCCCOC(=O)c1ccccc1C(=O)O.CCCCOC(=O)c1ccccc1C(=O)O.[Cu+2]
- T/C (dose: 6.25 mg/kg/injection, schedule: Q04DX003 (ip), vehicle: saline with Tween-80): 102 % of control
- T/C (dose: 12.5 mg/kg/injection, schedule: Q04DX003 (ip), vehicle: saline with Tween-80): 96 % of control
- T/C [19]: 102 % of control

SMILES: O=C1C(=O)c2ncccc2-c2ncccc21
- T/C (dose: 7.5 mg/kg/injection, schedule: Q01DX005 (ip), vehicle: saline with Tween-80): 113 % of control
- T/C (dose: 15.0 mg/kg/injection, schedule: Q01DX005 (ip), vehicle: saline with Tween-80): 95 % of control

SMILES: C[C@@H]1C[C@@]2(C)[C@@H](CC[C@@H]3[C@@H]2CC[C@]2(C)[C@@H](O)CC[C@@H]32)CC1=O
- T/C [1]: 100 % of control
- T/C [2]: 100 % of control

SMILES: COC(/C=N/OC(=O)c1ccc([N+](=O)[O-])cc1)c1ccccc1 (stereo not given)
- T/C [19]: 89 % of control and 92 % of control
- T/C (dose: 50.0 mg/kg/injection, schedule: Q04DX003 (ip), vehicle: saline with Tween-80): 92 % of control and 94 % of control

SMILES: CSc1nc(SC)c2c(C)cn(C3OC(C)C(O)C(O)C3O)c2n1 (stereo not given)
- T/C [14]: 94 % of control
- T/C [15]: 93 % of control
- T/C (dose: 400.0 mg/kg/injection, schedule: Q01DX005 (ip), vehicle: saline with Tween-80): 97 % of control
